Assays:
SK-MEL-2 = test: NCI-60 screening, Melanoma; format: cell-based, human
HCT-116 = test: NCI-60 screening, Colon Cancer; format: cell-based, human
SK-MEL-5 = test: NCI-60 screening, Melanoma; format: cell-based, human
NCI-H332M = test: NCI-60 screening, Non-Small Cell Lung Cancer; format: cell-based, human
[1] = system: human umbilical vein endothelial cells (HUVEC); test: Matrigel in vitro HUVECs tube formation assay (angiogenesis); format: cell-based; details: 1 μM concentration, all measured time points
Experimental: Matrigel in vitro HUVECs tube formation assay: The tube formation assay was performed using 12-well plate coated with 100 μL Matrigel basement membrane matrix (BD Bioscience) per well and polymerized at 37° C. for 30 min. Human umbilical vascular endothelial cells (HUVECs) suspended in M199 medium containing 2% FBS were plated on the Matrigel at a density of 2×10^5 cells/well. […] After 8 h, the Matrigel-induced morphological changes were photographed and the extent of capillary tube formation was evaluated by measuring the total tube length per field.

HT29 = test: NCI-60 screening, Colon Cancer; format: cell-based, human
UACC-257 = test: NCI-60 screening, Melanoma; format: cell-based, human
NCI/ADR-RES = test: NCI-60 screening, Ovarian Cancer; format: cell-based, human
[2] = system: human endometrial stromal cells (HESC); test: Decidualization assay, phalloidin staining of actin cytoskeleton; format: cell-based
Experimental: Decidualization studies: The above compounds were investigated originally for the treatment of endometriosis. The compounds were tested in a decidualization assay using human endometrial stromal fibroblast (HESC) cells. In preparation for the possibility of embryonic attachment, the stromal cells in the endometrium undergo extensive waves of proliferation, remodeling, and terminal differentiation that transforms the endometrium into an endocrine gland, called decidua. This transformation is called decidualization and it is under the control by ovarian hormones.
The level of apoptosis increases from the proliferative phase through menstrual cycle and peaks at menses. […] However if the cells are subjected to conditions that induce decidualization, stromal cells will begin to differentiate instead of undergoing apoptosis.
Rationale of this assay is described above in mechanism of action studies section. Briefly, human stromal endometrial cells were plated in the presence and absence of progesterone and allow undergoing decidualization. The cells treated with test compounds of different concentrations and stained for actin cytocketal morphology using phalloidin staining and monitored under fluorescent microscope.

NCI-H460 = test: NCI-60 screening, Non-Small Cell Lung Cancer; format: cell-based, human
ACHN = test: NCI-60 screening, Renal Cancer; format: cell-based, human
SMAD = test: Phosphorylation of SMAD; format: cell-based; details: thorough blocking TGF-beta
MDA-MB-231 ATCC = test: NCI-60 screening, Breast Cancer; format: cell-based, human
HCC-2998 = test: NCI-60 screening, Colon Cancer; format: cell-based, human
LOX IMVI = test: NCI-60 screening, Melanoma; format: cell-based, human
U251 = test: NCI-60 screening, CNS Cancer; format: cell-based, human

C#CC(F)(F)[C@]1(O)CCC2C3CCC4=CC(=O)CCC4=C3C(c3ccc(C4CC4)cc3)C[C@@]21C (stereo partly drawn) [EC330, 17α-(1,1-difluoro-2-propyn-1-yl)-17β-hydroxy-11β-[4-p-(cyclopropyl)phenyl]estra-4,9-dien-3-one]
TGI (log10TGI) (SK-MEL-2): −5.19 | TGI (log10TGI) (HCT-116): −4.55 | TGI (log10TGI) (SK-MEL-5): −4.79 | TGI (log10TGI) (NCI-H332M): >−4.00 | tube formation [1]: complete abrogation of tube formation | TGI (log10TGI) (HT29): −6.72 | TGI (log10TGI) (UACC-257): >−4.00 | TGI (log10TGI) (NCI/ADR-RES): −5.41 | actin cytoskeletal disruption (phalloidin staining) [2]: cytoskeletal disruption | TGI (log10TGI) (NCI-H460): −4.80 | TGI (log10TGI) (ACHN): −5.09 | phosphorylation of SMAD (SMAD): indirectly diminish the phosphorylation of SMAD | TGI (log10TGI) (MDA-MB-231 ATCC): −5.46 | TGI (log10TGI) (HCC-2998): −4.37 | TGI (log10TGI) (LOX IMVI): <−8.00 | TGI (log10TGI) (U251): −5.78
